Source: patent US8461328B2, “Tricyclic heterocyclic compounds, compositions and methods of use thereof” (Genentech, Inc., priority 2010, dated 2013)

What was measured:
Assay type in all cases: biochemical
JAK2 = target: T1, JAK2 (Homo sapiens, UniProt O60674); assay: JAK2 inhibition (Table 4); details: read-out: JAK2 Ki
T1 construct: made in house; host or cells: SF9 insect cells (baculovirus)

JAK1 = target: T2, JAK1 (Homo sapiens, UniProt P23458); assay: JAK1 inhibition (Table 4); details: read-out: JAK1 Ki
T2 construct: made in house; host or cells: SF9 insect cells (baculovirus)

JAK3 = target: T3, JAK3 (Homo sapiens, UniProt P52333); assay: JAK3 inhibition (Table 4); details: read-out: JAK3 Ki
T3 construct: made in house; host or cells: SF9 insect cells (baculovirus)

TYK2 = target: T4, TYK2 (Homo sapiens, UniProt P29597); assay: TYK2 inhibition (Table 4)
T4 construct: made in house; host or cells: SF9 insect cells (baculovirus)
T4 sequence (P29597 873-1187): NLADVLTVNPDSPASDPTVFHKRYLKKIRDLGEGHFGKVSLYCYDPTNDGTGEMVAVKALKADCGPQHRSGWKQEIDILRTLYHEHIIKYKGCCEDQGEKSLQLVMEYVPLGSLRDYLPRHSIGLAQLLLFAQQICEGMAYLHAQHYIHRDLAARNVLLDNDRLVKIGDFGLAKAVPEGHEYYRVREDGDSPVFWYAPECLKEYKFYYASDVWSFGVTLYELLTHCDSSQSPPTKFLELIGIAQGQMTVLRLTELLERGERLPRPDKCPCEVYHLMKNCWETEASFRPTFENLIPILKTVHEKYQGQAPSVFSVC

T1 sequence (O60674 812-1132): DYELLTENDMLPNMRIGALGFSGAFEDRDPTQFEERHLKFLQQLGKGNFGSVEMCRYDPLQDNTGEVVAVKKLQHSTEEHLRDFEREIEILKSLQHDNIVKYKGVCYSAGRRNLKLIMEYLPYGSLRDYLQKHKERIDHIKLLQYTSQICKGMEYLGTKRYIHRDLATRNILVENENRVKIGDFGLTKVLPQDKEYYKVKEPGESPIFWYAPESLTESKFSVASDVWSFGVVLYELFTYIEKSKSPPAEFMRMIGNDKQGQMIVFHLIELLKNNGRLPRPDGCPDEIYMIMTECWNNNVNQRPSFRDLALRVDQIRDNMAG
T3 sequence (P52333 783-1124): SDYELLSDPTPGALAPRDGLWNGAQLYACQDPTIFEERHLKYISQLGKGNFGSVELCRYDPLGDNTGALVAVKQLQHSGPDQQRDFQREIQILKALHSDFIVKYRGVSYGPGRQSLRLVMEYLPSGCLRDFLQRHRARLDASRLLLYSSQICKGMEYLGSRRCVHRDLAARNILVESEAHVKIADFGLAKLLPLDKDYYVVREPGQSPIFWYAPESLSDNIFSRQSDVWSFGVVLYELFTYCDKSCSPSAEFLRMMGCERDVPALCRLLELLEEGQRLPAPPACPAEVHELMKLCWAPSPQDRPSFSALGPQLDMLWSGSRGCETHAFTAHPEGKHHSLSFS
T2 sequence (P23458 852-1154): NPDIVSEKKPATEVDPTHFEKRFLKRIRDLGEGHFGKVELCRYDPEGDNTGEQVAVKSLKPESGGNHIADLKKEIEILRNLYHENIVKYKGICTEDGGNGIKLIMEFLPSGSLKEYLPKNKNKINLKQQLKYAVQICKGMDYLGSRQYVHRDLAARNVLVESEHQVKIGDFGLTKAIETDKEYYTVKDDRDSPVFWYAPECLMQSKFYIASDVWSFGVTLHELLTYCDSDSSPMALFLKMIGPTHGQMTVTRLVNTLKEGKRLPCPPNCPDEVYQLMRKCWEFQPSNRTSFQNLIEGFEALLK

Ki (JAK2) | Ki (JAK1) | Ki (JAK3) | Ki (TYK2) | Molecule
5.91 nM | 1.36 nM | 14 nM | 12.7 nM | Cc1nc2cnc3[nH]ccc3c2n1C1CCC(NCCC#N)C1 (racemic) [Example 627, Racemic trans 3-[3-(2-methyl-6H-1,2,3,5,6-tetraaza-as-indacen-1-yl)-cyclopentylamino]-propionitrile]
38.6 nM | 4.82 nM | 68.6 nM | 38.4 nM | C[C@@H](O)c1nc2cnc3[nH]ccc3c2n1C1CCC(CS(C)(=O)=O)CC1 (mixture of isomers) [Example 649, (R)-1-[1-(4-Methanesulfonylmethyl-cyclohexyl)-1,6-dihydro-1,2,3,5,6-tetraaza-as-indacen-2-yl]-ethanol]
891 nM | 131 nM | 361 nM | 1170 nM | O=C(Cc1nc2cnc3[nH]ccc3c2n1C1CCCOC1)N1CCCC1 (racemic) [Example 968, 1-Pyrrolidin-1-yl-2-[1-(tetrahydro-pyran-3-yl)-1,6-dihydro-1,3,5,6-tetraaza-as-indacen-2-yl]-ethanone]
43.5 nM | 15.8 nM | 52.4 nM | 255 nM | N#CCCN1CCC(n2c(CCC3CC3)nc3cnc4[nH]ccc4c32)CC1 [Example 408, 3-{4-[2-(2-Cyclopropyl-ethyl)-6H-1,3,5,6-tetraaza-as-indacen-1-yl]-piperidin-1-yl}-propionitrile]
105 nM | 37 nM | 1320 nM | 454 nM | CC1(n2nnc3cnc4[nH]ccc4c32)CCN(S(=O)(=O)c2cccnc2)CC1 [Example 584, 1-[4-Methyl-1-(pyridine-3-sulfonyl)-piperidin-4-yl]-1,6-dihydro-1,2,3,5,6-pentaaza-as-indacene]
51.4 nM | 36.4 nM | 243 nM | 495 nM | c1cnc(N2CCC(n3cnc4cnc5[nH]ccc5c43)CC2)nc1 [Example 64, 1-(1-Pyrimidin-2-yl-piperidin-4-yl)-1,6-dihydro-1,3,5,6-tetraaza-as-indacene]
1090 nM | 171 nM | 511 nM | 1140 nM | CN(CCO)C(=O)Cc1nc2cnc3[nH]ccc3c2n1C1CCCOC1 (racemic) [Example 969, N-(2-Hydroxy-ethyl)-N-methyl-2-[1-(tetrahydro-pyran-3-yl)-1,6-dihydro-1,3,5,6-tetraaza-as-indacen-2-yl]-acetamide]
7.44 nM | 4.46 nM | 36.2 nM | 124 nM | FC(F)(F)c1cccc(CN2CCC(n3cnc4cnc5[nH]ccc5c43)CC2)n1 [Example 314, 1-[1-(6Trifluoromethyl-pyridin-2-ylmethyl)-piperidin-4-yl]-1,6-dihydro-1,3,5,6-tetraaza-as-indacene]
3.55 nM | 3.32 nM | 20.4 nM | 52.4 nM | N#Cc1cccc(CN2CCC(n3cnc4cnc5[nH]ccc5c43)CC2)n1 [Example 304, 6-[4-(6H-1,3,5,6-Tetraaza-as-indacen-1-yl)-piperidin-1-ylmethyl]-pyridine-2-carbonitrile]
66.8 nM | 13.6 nM | 57.5 nM | 49.6 nM | O=S1(=O)CCCN1Cc1nc2cnc3[nH]ccc3c2n1C1CCCCC1 [Example 696, 1-Cyclohyl-2-(1,1-dioxo-1,1,6-isothiazolidin-2-ylmethyl)-1,6-dihydro-1,2,3,5,6-tetraaza-as-indacene]
88.8 nM | 34.3 nM | 39.3 nM | 259 nM | N#CCCN1CCC(n2c(CC(=O)N3CC(F)(F)C3)nc3cnc4[nH]ccc4c32)CC1 [Example 274, 3-(4-{2-[2-(3,3-Difluoro-azetidin-1-yl)-2-oxo-ethyl]-6H-1,3,5,6-tetraaza-as-indacen-1-yl]-piperidin-1-yl}-propionitrile]

Molecule | Ki (JAK2) | Ki (JAK1) | Ki (JAK3) | Ki (TYK2)
[3-(6H-1,3,5,6-Tetraaza-as-indacen-1-yl)-cyclopentyl]-carbamic acid 2,2,2-trifluoro-ethyl ester [Example 733] | 4.83 nM | 0.77 nM | 5.88 nM | 37.8 nM
